Experimental data: PMC8890504, “Evolution of Brain-Expressed Biogenic Amine Receptors into Olfactory Trace Amine-Associated Receptors” (Molecular Biology and Evolution, 2022)
Where “and” joins values, the source holds several entries; their conditions need not be identical. Equal entries are not always repeated. Each block holds one molecule with its values, some of them ahead of it.

How the values were obtained:
mouse TAAR8c = biological target: T1, mouse TAAR8c (Mus musculus, UniProt Q5QD05); assay: Cell-based receptor activation reporter assay (SEAP / Dual-Glo luciferase)
T1 construct: bovine rhodopsin N-terminal 20 amino acids (Rho tag); expressed in transfected cells; host or cells: HEK293(T) (SEAP assay) or Hana3A (Dual-Glo assay)
Protocol: (§1) Fluorescence was measured with a BioTek Microplate reader.

mouse TAAR5 = biological target: T2, mouse TAAR5 (Mus musculus, UniProt Q5QD14); assay: as above
T2 construct: bovine rhodopsin N-terminal 20 amino acids (Rho tag); expressed in transfected cells; host or cells: HEK293(T) (SEAP assay) or Hana3A (Dual-Glo assay)
Protocol: as §1

shark TAARS1b = shark TAARS1b (Chiloscyllium punctatum, UniProt A0A401S5C1); assay: as above; set-up: species or system bamboo shark
Protocol: as §1

catfish TAAR13f = catfish TAAR13f (Ictalurus punctatus, UniProt A0A2D0SGW4); assay: as above
Protocol: as §1

catfish TAAR13h = catfish TAAR13h (Ictalurus punctatus, UniProt A0A2D0SG84); assay: as above
Protocol: as §1

rabbit TAAR8b = rabbit TAAR8b (Oryctolagus cuniculus, UniProt G1SRV7); assay: as above
Protocol: as §1

rat TAAR6 = biological target: T3, rat TAAR6 (Rattus norvegicus, UniProt Q923Y5); assay: as above
T3 construct: bovine rhodopsin N-terminal 20 amino acids (Rho tag); expressed in transfected cells; host or cells: HEK293(T) (SEAP assay) or Hana3A (Dual-Glo assay)
Protocol: as §1

mouse TAAR6 = biological target: T4, mouse TAAR6 (Mus musculus, UniProt Q5QD13); assay: as above
T4 construct: bovine rhodopsin N-terminal 20 amino acids (Rho tag); expressed in transfected cells; host or cells: HEK293(T) (SEAP assay) or Hana3A (Dual-Glo assay)
Protocol: as §1

wild boar TAAR7 = wild boar TAAR7 (Sus scrofa, UniProt F1S3Q1); assay: as above
Protocol: as §1

rat TAAR7a = biological target: T5, rat TAAR7a (Rattus norvegicus, UniProt Q923Y2); assay: as above
T5 construct: bovine rhodopsin N-terminal 20 amino acids (Rho tag); expressed in transfected cells; host or cells: HEK293(T) (SEAP assay) or Hana3A (Dual-Glo assay)
Protocol: as §1

rat TAAR9 = biological target: T6, rat TAAR9 (Rattus norvegicus, UniProt Q923Y6); assay: as above
T6 construct: bovine rhodopsin N-terminal 20 amino acids (Rho tag); expressed in transfected cells; host or cells: HEK293(T) (SEAP assay) or Hana3A (Dual-Glo assay)
T6 sequence (Q923Y6 1-338): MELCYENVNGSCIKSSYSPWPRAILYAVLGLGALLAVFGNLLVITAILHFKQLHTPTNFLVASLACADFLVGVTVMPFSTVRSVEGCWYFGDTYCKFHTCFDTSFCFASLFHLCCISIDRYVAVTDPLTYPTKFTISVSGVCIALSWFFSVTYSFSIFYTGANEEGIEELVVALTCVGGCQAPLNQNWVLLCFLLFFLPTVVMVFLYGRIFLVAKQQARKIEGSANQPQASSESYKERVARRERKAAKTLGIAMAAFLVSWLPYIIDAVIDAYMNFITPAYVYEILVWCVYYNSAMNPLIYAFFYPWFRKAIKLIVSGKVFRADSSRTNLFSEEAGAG
Protocol: as §1

mouse TAAR7d = biological target: T7, mouse TAAR7d (Mus musculus, UniProt Q5QD10); assay: as above
T7 construct: bovine rhodopsin N-terminal 20 amino acids (Rho tag); expressed in transfected cells; host or cells: HEK293(T) (SEAP assay) or Hana3A (Dual-Glo assay)
Protocol: as §1

rat TAAR8a = biological target: T8, rat TAAR8a (Rattus norvegicus, UniProt Q923X9); assay: as above
T8 construct: bovine rhodopsin N-terminal 20 amino acids (Rho tag); expressed in transfected cells; host or cells: HEK293(T) (SEAP assay) or Hana3A (Dual-Glo assay)
Protocol: as §1

cat TAAR6b = cat TAAR6b (Felis catus, UniProt A0ABI7X994); assay: as above
Protocol: as §1

TARL1 = assay: Response to 16 ligands at 10 µM, luciferase assay; format: cell-based; conditions: fig. 5B
Protocol: (§2) Ligand profiles and expression patterns of HTR4, TARL, and TAAR1. (A) qPCR analysis of different receptors in zebrafish tissues. Gapdh serves as a control. (B) Response of HTR4, TARL, TAARC1, and TAAR1 to 16 ligands at 10 μM. The heatmap is based on the ratio of fluorescence intensity of ligand–receptor interaction and no ligand controls in the luciferase assay. […] (C) PhyloPCA analysis on the responses of HTR4, TARL, TAARC1, and TAAR1 to these 16 ligands. […] Dots colored by receptor clades represent the ligand responses of receptors on the first two PC axes. Ligand eigenvectors are represented by lines and colored according to the ligand clusters. A ligand name is shown at the tip of the line if its eigenvector has a higher contribution (compared with other ligands) to either PC1 or PC2. […] (D) The presence of HTR4, TARL1, TARL2, and TAAR1 in several representative species in vertebrates is plotted. […]
(§3) Hana3A cells were plated onto 96-well plates (Greiner bio-one) with 50 µl growth medium (DMEM medium with 10% BCS and 5% penicillin–streptomycin solution with puromycin) and cultured at 37 °C with 5% CO2. […] The chemiluminescence of firefly luciferase and renilla luciferase were measured with a Biotek Microplate reader using the Dual-Glo Luciferase Assay System (Promega).

zebrafish TAAR12j = zebrafish TAAR12j (Danio rerio, UniProt Q5QNN7); assay: Cell-based receptor activation reporter assay (SEAP / Dual-Glo luciferase)
Protocol: as §1

cat TAAR4 = cat TAAR4 (Felis catus, UniProt A0ABI7X9K0); assay: as above
Protocol: as §1

hamster TAAR4 = hamster TAAR4 (Mesocricetus auratus, UniProt A0A1U7Q3I9); assay: as above
Protocol: as §1

horse TAAR4 = horse TAAR4 (Equus caballus, UniProt F7BPI5); assay: as above
Protocol: as §1

cow TAAR4 = cow TAAR4 (Bos taurus, UniProt F1MNY9); assay: as above
Protocol: as §1

guinea pig TAAR4 = guinea pig TAAR4 (Cavia porcellus, UniProt H0W119); assay: as above
Protocol: as §1

TARL2 = assay: Response to 16 ligands at 10 µM, luciferase assay; format: cell-based, coelacanth and shark; conditions: fig. 5B
Protocol: as §2, §3

mouse TAAR8a = biological target: T9, mouse TAAR8a (Mus musculus, UniProt Q5QD07); assay: Cell-based receptor activation reporter assay (SEAP / Dual-Glo luciferase)
T9 construct: bovine rhodopsin N-terminal 20 amino acids (Rho tag); expressed in transfected cells; host or cells: HEK293(T) (SEAP assay) or Hana3A (Dual-Glo assay)
Protocol: as §1

sheep TAAR5 = sheep TAAR5 (Ovis aries, UniProt A0ACI6PZ16); assay: as above
Protocol: as §1

cat TAAR5 = cat TAAR5 (Felis catus, UniProt A0ABI7YAE2); assay: as above
Protocol: as §1

cow TAAR5 = cow TAAR5 (Bos taurus, UniProt F1MTC9); assay: cell-based; conditions: EC50 (μM)
Source text: (§4) Next, we conducted high-throughput screening to further explore the functional properties of these aminergic receptors. We cloned 248 TAARs from 11 mammals (human, mouse, rat, guinea pig, hamster, cat, horse, rabbit, sheep, rhesus, and wild boar), two reptiles (alligator and chicken), six teleosts (zebrafish, catfish, fugu, medaka, salmon, and pufferfish), one lobed-finned fish (coelacanth), one holost fish (spotted gar), and one cartilaginous fish (bamboo shark) (fig. 2A). We also cloned eight TARLs from coelacanth, zebrafish, catfish, fugu, medaka, spotted gar, shark, and 28 TARLLs from sea lamprey (supplementary table S2, Supplementary Material online). In addition, we cloned two HTR4s from mouse and zebrafish. We then challenged all of the cloned receptors with a ligand library comprised 97 amines at 100 µM.
(§5) HEK293 cells were plated onto poly-D-lysine (Sigma–Aldrich) preincubated 96-well plates (Corning) with 50 µl growth medium (DMEM medium with 10% BCS and 5% penicillin–streptomycin solution) and cultured for 18–24 h. Receptor plasmids were cotransfected with Cre-SEAP plasmid using polyethylenimine (PEI, Polysciences) and incubated at 37 °C with 5% CO2. About 4 h later, cells were incubated with or without test compounds diluted in serum-free DMEM for 48 h, followed by incubating for 2 h at 70 °C. After returning to room temperature, 50 µl supernatant from each well was incubated with an equal volume of 0.3 mM 4-methylumbelliferyl phosphate (4-MUP, Sigma–Aldrich) in 2 M diethanolamine bicarbonate (Sigma–Aldrich), pH 10.0 for 15 min. Fluorescence was measured with a BioTek Microplate reader.
(§6) Hana3A cells were plated onto 96-well plates (Greiner bio-one) with 50 µl growth medium (DMEM medium with 10% BCS and 5% penicillin–streptomycin solution with puromycin) and cultured at 37 °C with 5% CO2. After 18–24 h, cells in each well were cotransfected with 50 ng receptor plasmid, 10 ng CRE-Luc, 10 ng pRL-SV40, and 10 ng mRTPs using Lipofectamine 2000 (Invitrogen), and incubated for 18 h. Medium was then replaced by 25 µl CD293 (Invitrogen) containing 1% glutamine with or without test compounds for 4 h. The chemiluminescence of firefly luciferase and renilla luciferase were measured with a Biotek Microplate reader using the Dual-Glo Luciferase Assay System (Promega).

hamster TAAR5 = hamster TAAR5 (Mesocricetus auratus, UniProt A0A1U7QEC3); assay: cell-based
Source text: as §4, §5, §6

mouse TAAR1 = mouse TAAR1 (Mus musculus, UniProt Q923Y8); assay: cell-based; conditions: mTAAR1
Source text: as §4
We then compared the responses of HTR4 from mouse and zebrafish, TARL1 from zebrafish, catfish, fugu, medaka, spotted gar, and coelacanth, TARL2 from coelacanth and shark, TAAR1 from mouse and zebrafish to the 16 ligands at 10 µM (fig. 5B).
as §5, §6

zebrafish TARL1 = zebrafish TARL1 (Danio rerio, UniProt A0A8M1Q794); assay: Cell-based receptor activation reporter assay (SEAP / Dual-Glo luciferase)
Protocol: as §1

catfish TAAR13g = catfish TAAR13g (Ictalurus punctatus, UniProt A0A2D0SG81); assay: as above
Protocol: as §1

coelacanth TARL2 = coelacanth TARL2 (Latimeria chalumnae, UniProt H3AWX3); assay: as above
Protocol: as §1

zebrafish TAAR1 = zebrafish TAAR1 (Danio rerio, UniProt Q5QNN1); assay: as above; conditions: zTAAR1
Protocol: as §1

spotted gar TARL1 = spotted gar TARL1 (Lepisosteus oculatus, UniProt W5NNR6); assay: as above
Protocol: as §1

coelacanth TAARC1b = coelacanth TAARC1b (Latimeria chalumnae, UniProt H3A8V0); assay: as above
Protocol: as §1

(UniProt Z9G6W3R3V9) = assay: as above; conditions: coelacanth TARL1
Protocol: as §1

mouse HTR4 = mouse HTR4 (Mus musculus, UniProt P97288); assay: cell-based
Source text: as §4, §5, §6

shark TARL2 = shark TARL2 (Chiloscyllium punctatum, UniProt A0A401SGR3); assay: Cell-based receptor activation reporter assay (SEAP / Dual-Glo luciferase); set-up: species or system bamboo shark
Protocol: as §1

TARLL1b = TARLL1b (Petromyzon marinus, UniProt A0AAJ7TCG4); assay: as above; set-up: species or system sea lamprey; conditions: TARLL1b
Protocol: as §1

spotted gar TAAR1b = spotted gar TAAR1b (Lepisosteus oculatus, UniProt W5NMY1); assay: as above
Protocol: as §1

medaka TAAR21f = assay: as above
Protocol: as §1

wild boar TAAR7, sequence (F1S3Q1 entry or part of it): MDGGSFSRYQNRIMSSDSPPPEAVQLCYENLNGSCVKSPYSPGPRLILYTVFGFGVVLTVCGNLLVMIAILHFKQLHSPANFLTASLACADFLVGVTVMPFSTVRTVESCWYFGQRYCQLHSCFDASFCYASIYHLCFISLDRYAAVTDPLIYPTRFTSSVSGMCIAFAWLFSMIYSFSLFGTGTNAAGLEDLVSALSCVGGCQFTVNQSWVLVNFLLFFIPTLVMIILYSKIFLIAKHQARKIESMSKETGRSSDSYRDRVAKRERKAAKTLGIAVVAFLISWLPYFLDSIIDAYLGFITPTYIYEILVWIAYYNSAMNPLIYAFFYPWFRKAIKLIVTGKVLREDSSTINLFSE
guinea pig TAAR4, sequence (H0W119 entry or part of it): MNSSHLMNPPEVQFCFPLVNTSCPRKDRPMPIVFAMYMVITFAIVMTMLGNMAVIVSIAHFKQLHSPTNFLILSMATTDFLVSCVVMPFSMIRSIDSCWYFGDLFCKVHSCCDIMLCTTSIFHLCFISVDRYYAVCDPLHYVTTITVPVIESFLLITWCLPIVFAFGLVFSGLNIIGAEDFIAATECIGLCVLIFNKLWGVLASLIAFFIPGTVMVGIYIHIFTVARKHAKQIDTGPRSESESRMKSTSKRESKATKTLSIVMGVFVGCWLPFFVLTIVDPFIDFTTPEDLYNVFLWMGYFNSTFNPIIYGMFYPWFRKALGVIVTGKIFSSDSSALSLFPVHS
hamster TAAR4, sequence (A0A1U7Q3I9 entry or part of it): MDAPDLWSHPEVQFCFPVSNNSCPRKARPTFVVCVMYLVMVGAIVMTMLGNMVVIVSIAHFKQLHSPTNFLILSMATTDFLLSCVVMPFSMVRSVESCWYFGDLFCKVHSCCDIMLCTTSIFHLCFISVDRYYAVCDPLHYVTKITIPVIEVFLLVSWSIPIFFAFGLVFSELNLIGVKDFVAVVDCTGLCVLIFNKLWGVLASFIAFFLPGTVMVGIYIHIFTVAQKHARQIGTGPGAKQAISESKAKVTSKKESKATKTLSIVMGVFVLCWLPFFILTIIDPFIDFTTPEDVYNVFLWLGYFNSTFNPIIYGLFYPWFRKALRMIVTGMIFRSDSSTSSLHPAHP
shark TAARS1b, sequence (A0A401S5C1 entry or part of it): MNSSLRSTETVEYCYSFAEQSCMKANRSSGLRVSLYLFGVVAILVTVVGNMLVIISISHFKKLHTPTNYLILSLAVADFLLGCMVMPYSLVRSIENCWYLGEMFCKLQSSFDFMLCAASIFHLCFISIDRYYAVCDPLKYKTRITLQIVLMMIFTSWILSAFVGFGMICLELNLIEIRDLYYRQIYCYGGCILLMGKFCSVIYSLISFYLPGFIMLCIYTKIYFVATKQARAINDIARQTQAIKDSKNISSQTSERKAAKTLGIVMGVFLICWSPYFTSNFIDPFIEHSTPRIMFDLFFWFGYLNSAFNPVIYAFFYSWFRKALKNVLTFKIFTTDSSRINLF
cow TAAR5, sequence (F1MTC9 entry or part of it): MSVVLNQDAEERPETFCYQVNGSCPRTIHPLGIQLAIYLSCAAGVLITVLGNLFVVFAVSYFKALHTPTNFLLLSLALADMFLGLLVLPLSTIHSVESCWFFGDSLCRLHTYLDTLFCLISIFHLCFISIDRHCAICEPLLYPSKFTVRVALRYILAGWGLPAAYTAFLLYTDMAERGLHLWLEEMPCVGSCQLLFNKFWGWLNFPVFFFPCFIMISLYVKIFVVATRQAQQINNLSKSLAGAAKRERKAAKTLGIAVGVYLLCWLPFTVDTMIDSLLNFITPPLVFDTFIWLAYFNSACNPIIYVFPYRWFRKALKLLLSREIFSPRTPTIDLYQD
cat TAAR4, sequence (A0ABI7X9K0 entry or part of it): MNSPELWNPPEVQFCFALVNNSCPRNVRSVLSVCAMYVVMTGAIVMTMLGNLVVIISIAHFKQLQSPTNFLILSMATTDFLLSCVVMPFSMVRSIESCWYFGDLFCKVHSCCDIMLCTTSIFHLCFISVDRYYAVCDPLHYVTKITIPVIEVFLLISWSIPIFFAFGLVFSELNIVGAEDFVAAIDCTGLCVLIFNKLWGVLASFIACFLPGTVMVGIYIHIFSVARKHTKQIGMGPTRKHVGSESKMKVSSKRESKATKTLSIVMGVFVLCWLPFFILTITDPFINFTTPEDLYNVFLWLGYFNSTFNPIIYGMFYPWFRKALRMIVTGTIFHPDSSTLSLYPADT
horse TAAR4, sequence (F7BPI5 entry or part of it): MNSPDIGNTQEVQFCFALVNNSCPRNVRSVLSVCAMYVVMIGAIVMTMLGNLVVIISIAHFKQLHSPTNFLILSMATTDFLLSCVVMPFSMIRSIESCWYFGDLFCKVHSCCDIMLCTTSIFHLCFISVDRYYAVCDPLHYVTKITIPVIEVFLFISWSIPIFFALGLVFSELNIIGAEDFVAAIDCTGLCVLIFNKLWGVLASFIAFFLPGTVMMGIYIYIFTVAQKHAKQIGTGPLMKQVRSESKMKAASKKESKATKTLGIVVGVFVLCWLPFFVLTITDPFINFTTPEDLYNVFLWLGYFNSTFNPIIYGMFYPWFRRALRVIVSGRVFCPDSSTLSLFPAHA
sheep TAAR5, sequence (A0ACI6PZ16 entry or part of it): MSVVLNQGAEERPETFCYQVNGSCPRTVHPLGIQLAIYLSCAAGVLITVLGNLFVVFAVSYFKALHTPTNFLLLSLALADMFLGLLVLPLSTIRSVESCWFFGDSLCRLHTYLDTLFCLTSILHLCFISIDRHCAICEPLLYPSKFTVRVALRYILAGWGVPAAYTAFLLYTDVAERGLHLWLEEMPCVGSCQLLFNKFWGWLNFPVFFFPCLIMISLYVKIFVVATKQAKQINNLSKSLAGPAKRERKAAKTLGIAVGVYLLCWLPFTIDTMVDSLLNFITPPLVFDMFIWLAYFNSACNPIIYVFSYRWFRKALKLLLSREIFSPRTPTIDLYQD
cat TAAR6b, sequence (A0ABI7X994 entry or part of it): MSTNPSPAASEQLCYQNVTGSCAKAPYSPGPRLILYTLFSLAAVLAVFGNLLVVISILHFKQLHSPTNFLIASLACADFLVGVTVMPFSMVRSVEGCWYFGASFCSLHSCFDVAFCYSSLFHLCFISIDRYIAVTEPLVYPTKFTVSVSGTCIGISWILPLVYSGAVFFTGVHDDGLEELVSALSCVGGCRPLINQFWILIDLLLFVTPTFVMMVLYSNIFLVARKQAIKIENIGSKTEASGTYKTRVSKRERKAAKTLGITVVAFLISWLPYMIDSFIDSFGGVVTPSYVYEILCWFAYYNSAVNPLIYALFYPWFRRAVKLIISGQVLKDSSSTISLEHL
TARLL1b, sequence (A0AAJ7TCG4 entry or part of it): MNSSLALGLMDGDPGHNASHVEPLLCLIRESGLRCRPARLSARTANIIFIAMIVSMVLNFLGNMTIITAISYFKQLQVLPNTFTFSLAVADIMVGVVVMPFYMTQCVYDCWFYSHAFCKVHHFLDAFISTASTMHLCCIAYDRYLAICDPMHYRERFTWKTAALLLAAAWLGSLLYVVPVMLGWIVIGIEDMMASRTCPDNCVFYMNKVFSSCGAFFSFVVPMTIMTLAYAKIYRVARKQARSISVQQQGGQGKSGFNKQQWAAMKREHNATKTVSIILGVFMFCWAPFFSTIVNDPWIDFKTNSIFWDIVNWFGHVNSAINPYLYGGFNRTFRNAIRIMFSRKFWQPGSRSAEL
zebrafish TAAR1, sequence (Q5QNN1 entry or part of it): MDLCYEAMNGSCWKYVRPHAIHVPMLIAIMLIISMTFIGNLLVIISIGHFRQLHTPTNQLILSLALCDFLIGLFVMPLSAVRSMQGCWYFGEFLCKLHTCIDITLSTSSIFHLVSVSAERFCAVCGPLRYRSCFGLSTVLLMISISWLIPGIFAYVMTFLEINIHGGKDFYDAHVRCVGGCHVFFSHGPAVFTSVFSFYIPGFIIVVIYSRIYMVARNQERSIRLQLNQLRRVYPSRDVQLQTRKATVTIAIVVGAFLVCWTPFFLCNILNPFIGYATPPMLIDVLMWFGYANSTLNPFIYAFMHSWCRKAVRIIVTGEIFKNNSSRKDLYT
spotted gar TAAR1b, sequence (W5NMY1 entry or part of it): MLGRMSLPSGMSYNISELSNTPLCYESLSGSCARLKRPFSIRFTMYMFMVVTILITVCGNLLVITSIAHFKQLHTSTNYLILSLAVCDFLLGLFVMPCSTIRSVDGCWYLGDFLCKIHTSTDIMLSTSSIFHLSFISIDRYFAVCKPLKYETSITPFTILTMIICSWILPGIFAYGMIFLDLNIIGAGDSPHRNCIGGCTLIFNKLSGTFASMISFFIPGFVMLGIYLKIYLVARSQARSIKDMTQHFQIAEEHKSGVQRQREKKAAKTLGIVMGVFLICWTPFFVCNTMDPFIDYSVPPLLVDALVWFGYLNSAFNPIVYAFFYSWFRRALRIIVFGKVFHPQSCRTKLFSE
hamster TAAR5, sequence (A0A1U7QEC3 entry or part of it): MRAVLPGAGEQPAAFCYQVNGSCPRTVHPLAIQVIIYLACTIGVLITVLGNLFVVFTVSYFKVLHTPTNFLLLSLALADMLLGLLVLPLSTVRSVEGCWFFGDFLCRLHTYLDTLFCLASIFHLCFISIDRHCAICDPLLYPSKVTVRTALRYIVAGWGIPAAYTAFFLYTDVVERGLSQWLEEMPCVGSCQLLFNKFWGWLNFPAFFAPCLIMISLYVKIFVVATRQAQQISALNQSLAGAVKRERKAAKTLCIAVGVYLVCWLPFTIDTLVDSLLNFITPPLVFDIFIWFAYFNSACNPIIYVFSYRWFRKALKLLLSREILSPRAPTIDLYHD
mouse TAAR1, sequence (Q923Y8 whole entry): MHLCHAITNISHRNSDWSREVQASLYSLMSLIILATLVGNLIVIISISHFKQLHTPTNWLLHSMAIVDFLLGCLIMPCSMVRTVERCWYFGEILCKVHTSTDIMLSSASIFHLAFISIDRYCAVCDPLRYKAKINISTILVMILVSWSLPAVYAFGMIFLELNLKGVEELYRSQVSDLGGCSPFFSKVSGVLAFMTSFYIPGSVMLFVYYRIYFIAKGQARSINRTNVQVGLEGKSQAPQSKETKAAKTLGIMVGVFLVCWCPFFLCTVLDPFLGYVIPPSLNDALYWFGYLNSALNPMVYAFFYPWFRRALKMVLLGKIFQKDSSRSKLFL

EC50 (mouse TAAR8c): 1.5 µM
EC50 (mouse TAAR5): 8.2 µM
EC50 (shark TAARS1b): 17.6 µM
Compound: CN1CCCCC1 [1-methylpiperidine]

Compound: N=C(N)NCCCCN [Agmatine, agmatine]
EC50 (catfish TAAR13f): 0.04 nM
EC50 (catfish TAAR13h): 165 µM

Compound: CN(C)C1CCCCC1 [N,N-dimethylcyclohexylamine]
EC50 (rabbit TAAR8b): ~50 µM
EC50 (rat TAAR6): ~50 µM
EC50 (mouse TAAR6): ~50 µM
EC50 (wild boar TAAR7): 50 µM and ~50 µM
EC50 (rat TAAR7a): 49.5 µM
EC50 (rat TAAR9): ~30 µM
EC50 (mouse TAAR7d): 107 µM
EC50 (rat TAAR8a): 27.6 µM
EC50 (cat TAAR6b): 101 µM

Compound: NCCc1ccccc1 [Phenylethylamine, phenylethylamine]
TARL1 ligand profile (TARL1): ligands include
EC50 (zebrafish TAAR12j): 4.8 µM
EC50 (cat TAAR4): 30 µM and ~30 µM
EC50 (hamster TAAR4): 300 µM and ~300 µM
EC50 (horse TAAR4): 100 µM and ~100 µM
EC50 (cow TAAR4): 98.4 µM
EC50 (guinea pig TAAR4): 150 µM and ~150 µM
TARL2 ligand profile (TARL2): cannot recognize

Compound: C1CCNCC1 [Piperidine, piperidine]
EC50 (mouse TAAR8a): ~300 µM

Compound: CN(C)C [Trimethylamine, trimethylamine]
EC50 (sheep TAAR5): 500 µM and ~500 µM
EC50 (cat TAAR5): 6.9 µM
EC50 (cow TAAR5): 300 µM and ~300 µM
EC50 (hamster TAAR5): 2.3 µM
EC50 (shark TAARS1b): 1.4 µM

Compound: NCCc1c[nH]c2ccccc12 [Tryptamine, tryptamine]
TARL1 ligand profile (TARL1): ligands include
EC50 (mouse TAAR1): ~28 µM
EC50 (zebrafish TARL1): 0.04 µM
EC50 (catfish TAAR13g): ~30 µM
EC50 (coelacanth TARL2): ~200 µM
EC50 (zebrafish TAAR1): ~52 µM
EC50 (spotted gar TARL1): 3.1 µM
EC50 (coelacanth TAARC1b): ~150 µM
EC50 ((UniProt Z9G6W3R3V9)): 18.1 µM
EC50 (mouse HTR4): ~180 µM
EC50 (shark TARL2): ~40 µM
EC50 (TARLL1b): ~100 µM

EC50 (spotted gar TAAR1b): 0.7 µM
EC50 (medaka TAAR21f): 0.09 µM
Compound: NCCc1ccc(O)cc1 [Tyramine, tyramine]
